Read-outs that look alike come from different tables or passages of the source.
Columns and labels:
Format in all cases: in vivo
[1] = tested on: waterhemp (common waterhemp, Amaranthus rudis); test: Test D pre-/postemergence plant response; conditions: Amaranthus tuberculatus, pre-emergence, Preemergence, scale 0 to 100 (0 no effect, 100 complete control), read-out: Plant response rating, Waterhemp
Method in brief: (§1)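 Ratings were visual, 0 = no effect to 100 = complete control, taken against untreated controls after 13 to 15 days in a greenhouse. Chemicals, formulated in non-phytotoxic surfactant-containing solvent, went onto soil (loam/sand) at planting for preemergence, or onto 1- to 4-leaf plants (2–18 cm) for postemergence.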

[2] = tested on: pigweed (Amaranthus retroflexus); test: Test D pre-/postemergence plant response; conditions: Amaranthus retroflexus; for pest or weed control at 16 g/ha: 16 g ai/ha; for pest or weed control at 31 g/ha: 31 g ai/ha; for pest or weed control at 62 g/ha: 62 g ai/ha; for pest or weed control at 125 g/ha: 125 g ai/ha
Method in brief: as §1

[3] = tested on: oilseed rape (Brassica napus); test: Test D pre-/postemergence plant response; conditions: Brassica napus; for plant injury at 16 g/ha: 16 g ai/ha; for plant injury at 31 g/ha: 31 g ai/ha; for plant injury at 62 g/ha: 62 g ai/ha; for plant injury at 125 g/ha: 125 g ai/ha
Method in brief: as §1

[4] = tested on: yellow nutsedge (Cyperus esculentus); test: Test D pre-/postemergence plant response; conditions: Cyperus; for pest or weed control at 16 g/ha: 16 g ai/ha; for pest or weed control at 31 g/ha: 31 g ai/ha; for pest or weed control at 62 g/ha: 62 g ai/ha; for pest or weed control at 125 g/ha: 125 g ai/ha
Method in brief: as §1

[5] = tested on: morningglory (Ipomoea coccinea); test: Test D pre-/postemergence plant response; conditions: Ipomoea; for pest or weed control at 16 g/ha: 16 g ai/ha; for pest or weed control at 31 g/ha: 31 g ai/ha; for pest or weed control at 62 g/ha: 62 g ai/ha; for pest or weed control at 125 g/ha: 125 g ai/ha
Method in brief: as §1

[6] = tested on: barnyardgrass (Echinochloa crus-galli); test: Test D pre-/postemergence plant response; conditions: Echinochloa crus-galli; for pest or weed control at 16 g/ha: 16 g ai/ha; for pest or weed control at 31 g/ha: 31 g ai/ha; for pest or weed control at 62 g/ha: 62 g ai/ha; for pest or weed control at 125 g/ha: 125 g ai/ha
Method in brief: as §1

[7] = tested on: chickweed (common chickweed, Stellaria media); test: Test D postemergence plant response
Method in brief: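 Visual 0–100 rating vs controls (0 = no effect, 100 = complete control), scored 13–15 d after postemergence spray. Plants 1- to 4-leaf stage (2–18 cm), potted in peat/vermiculite mix, kept in greenhouse.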

[8] = pre-emergence, Preemergence, scale 0 to 100 (0 no effect, 100 complete control), read-out: Plant response rating, Pigweed
[9] = pre-emergence, Preemergence, scale 0 to 100 (0 no effect, 100 complete control), read-out: Plant response rating, Oilseed Rape
[10] = pre-emergence, Preemergence, scale 0 to 100 (0 no effect, 100 complete control), read-out: Plant response rating, Nutsedge, Yellow
[11] = pre-emergence, Preemergence, scale 0 to 100 (0 no effect, 100 complete control), read-out: Plant response rating, Morningglory
[12] = post-emergence, Postemergence, scale 0 to 100, 0 no effect, 100 complete control, read-out: Plant response rating, Barnyardgrass
[13] = pre-emergence, Preemergence, scale 0 to 100 (0 no effect, 100 complete control), read-out: Plant response rating, Barnyardgrass

FC(F)(F)c1cc(-c2ccccc2Oc2ncc(Cl)cn2)no1 [Compound 200, 5-chloro-2-[2-[5-(trifluoromethyl)-3-isoxazolyl]phenoxy]pyrimidine]
pest or weed control at 31 g/ha ([1]; 31 g ai/ha): 100% | pest or weed control at 62 g/ha ([1]; 62 g ai/ha): 100% | pest or weed control at 16 g/ha ([2]; post-emergence, Postemergence, read-out: Plant response rating (scale 0 to 100), Pigweed): 90% | pest or weed control at 31 g/ha ([2]; post-emergence, Postemergence, scale 0 to 100 (0 no effect, 100 complete control), read-out: Pigweed plant response rating): 85% | pest or weed control at 62 g/ha ([2]; post-emergence, Postemergence, scale 0 to 100, 0 no effect, 100 complete control, read-out: Pigweed plant response rating): 85% | pest or weed control at 125 g/ha ([2]; post-emergence, Postemergence, scale 0 to 100, 0 no effect, 100 complete control, read-out: Plant response rating, Pigweed): 98% | pest or weed control at 125 g/ha ([2]; pre-emergence, Preemergence, read-out: Plant response rating (scale 0 to 100), Pigweed): 100% | pest or weed control at 16 g/ha [2, 8]: 100% | pest or weed control at 31 g/ha [2, 8]: 100% | pest or weed control at 62 g/ha [2, 8]: 100% | plant injury at 16 g/ha ([3]; post-emergence, Postemergence, read-out: Plant response rating (scale 0 to 100), Oilseed Rape): 70% | plant injury at 31 g/ha ([3]; post-emergence, Postemergence, scale 0 to 100 (0 no effect, 100 complete control), read-out: Oilseed Rape plant response rating): 85% | plant injury at 62 g/ha ([3]; post-emergence, Postemergence, scale 0 to 100, 0 no effect, 100 complete control, read-out: Oilseed Rape plant response rating): 100% | plant injury at 125 g/ha ([3]; post-emergence, Postemergence, scale 0 to 100, 0 no effect, 100 complete control, read-out: Plant response rating, Oilseed Rape): 100% | plant injury at 125 g/ha ([3]; pre-emergence, Preemergence, read-out: Plant response rating (scale 0 to 100), Oilseed Rape): 100% | plant injury at 16 g/ha [3, 9]: 85% | plant injury at 31 g/ha [3, 9]: 100% | plant injury at 62 g/ha [3, 9]: 100% | pest or weed control at 16 g/ha ([4]; post-emergence, Postemergence, read-out: Plant response rating (scale 0 to 100), Nutsedge, Yellow): 5% | pest or weed control at 31 g/ha ([4]; post-emergence, Postemergence, scale 0 to 100 (0 no effect, 100 complete control), read-out: Nutsedge, Yellow plant response rating): 5% | pest or weed control at 62 g/ha ([4]; post-emergence, Postemergence, scale 0 to 100, 0 no effect, 100 complete control, read-out: Nutsedge, Yellow plant response rating): 5% | pest or weed control at 125 g/ha ([4]; post-emergence, Postemergence, scale 0 to 100, 0 no effect, 100 complete control, read-out: Plant response rating, Nutsedge, Yellow): 15% | pest or weed control at 125 g/ha ([4]; pre-emergence, Preemergence, read-out: Plant response rating (scale 0 to 100), Nutsedge, Yellow): 15% | pest or weed control at 16 g/ha [4, 10]: 0% | pest or weed control at 31 g/ha [4, 10]: 0% | pest or weed control at 62 g/ha [4, 10]: 0% | pest or weed control at 16 g/ha ([5]; post-emergence, Postemergence, read-out: Plant response rating (scale 0 to 100), Morningglory): 55% | pest or weed control at 31 g/ha ([5]; post-emergence, Postemergence, scale 0 to 100 (0 no effect, 100 complete control), read-out: Morningglory plant response rating): 50% | pest or weed control at 62 g/ha ([5]; post-emergence, Postemergence, scale 0 to 100, 0 no effect, 100 complete control, read-out: Morningglory plant response rating): 85% | pest or weed control at 125 g/ha ([5]; post-emergence, Postemergence, scale 0 to 100, 0 no effect, 100 complete control, read-out: Plant response rating, Morningglory): 98% | pest or weed control at 125 g/ha ([5]; pre-emergence, Preemergence, read-out: Plant response rating (scale 0 to 100), Morningglory): 90% | pest or weed control at 16 g/ha [5, 11]: 5% | pest or weed control at 31 g/ha [5, 11]: 45% | pest or weed control at 62 g/ha [5, 11]: 70% | pest or weed control at 16 g/ha ([6]; post-emergence, Postemergence, read-out: Plant response rating (scale 0 to 100), Barnyardgrass): 5% | pest or weed control at 31 g/ha ([6]; post-emergence, Postemergence, scale 0 to 100 (0 no effect, 100 complete control), read-out: Barnyardgrass plant response rating): 10% | pest or weed control at 62 g/ha [6, 12]: 10% | pest or weed control at 125 g/ha [6, 12]: 15% | pest or weed control at 125 g/ha ([6]; pre-emergence, Preemergence, read-out: Plant response rating (scale 0 to 100), Barnyardgrass): 100% | pest or weed control at 16 g/ha [6, 13]: 35% | pest or weed control at 31 g/ha [6, 13]: 95% | pest or weed control at 62 g/ha [6, 13]: 100% | Plant response rating (scale 0 to 100), Chickweed ([7]; 16 g ai/ha): 60 | pest or weed control at 31 g/ha ([7]; Stellaria media, post-emergence, 31 g ai/ha, scale 0 to 100 (0 no effect, 100 complete control), read-out: Chickweed plant response rating): 95% | pest or weed control at 62 g/ha ([7]; Stellaria media, post-emergence, 62 g ai/ha, scale 0 to 100, 0 no effect, 100 complete control, read-out: Plant response rating, Chickweed): 100% | pest or weed control at 125 g/ha ([7]; Stellaria media, post-emergence, 125 g ai/ha, scale 0 to 100, 0 no effect, 100 complete control, read-out: Plant response rating, Chickweed): 100%
